Common to all, as to assay type: biochemical
Experiment [1] addresses T1, 5-LOX (Soybean lipoxygenase) (Glycine max, UniProt P08170).
T1 construct: purchased Cayman Chemical Co. 760700
T1 sequence (P08170 1-839): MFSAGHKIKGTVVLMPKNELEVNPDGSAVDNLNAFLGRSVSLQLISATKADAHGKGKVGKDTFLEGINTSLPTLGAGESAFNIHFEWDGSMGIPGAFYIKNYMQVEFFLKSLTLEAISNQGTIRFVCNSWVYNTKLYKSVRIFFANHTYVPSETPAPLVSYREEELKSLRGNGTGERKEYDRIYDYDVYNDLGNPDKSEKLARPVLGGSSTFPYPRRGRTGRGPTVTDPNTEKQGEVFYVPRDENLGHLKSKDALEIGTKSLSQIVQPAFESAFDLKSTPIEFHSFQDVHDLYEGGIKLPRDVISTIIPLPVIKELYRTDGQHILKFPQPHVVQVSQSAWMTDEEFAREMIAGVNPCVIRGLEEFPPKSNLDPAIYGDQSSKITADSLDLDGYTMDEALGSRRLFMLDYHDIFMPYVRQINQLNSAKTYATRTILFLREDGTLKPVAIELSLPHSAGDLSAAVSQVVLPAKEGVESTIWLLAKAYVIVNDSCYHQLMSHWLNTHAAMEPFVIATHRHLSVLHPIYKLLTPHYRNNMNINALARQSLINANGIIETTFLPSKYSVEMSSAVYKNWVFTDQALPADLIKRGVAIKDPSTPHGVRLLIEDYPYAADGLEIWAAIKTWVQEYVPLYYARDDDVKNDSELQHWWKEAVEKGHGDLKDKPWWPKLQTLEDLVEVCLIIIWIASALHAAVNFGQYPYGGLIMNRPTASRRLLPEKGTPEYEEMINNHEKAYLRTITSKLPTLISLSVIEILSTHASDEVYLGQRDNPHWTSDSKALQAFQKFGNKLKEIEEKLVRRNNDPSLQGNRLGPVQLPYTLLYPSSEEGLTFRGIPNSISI
Put plainly: Lipoxygenase inhibitory activity assay. As for the experimental part: 10 µL of the compound of each concentration was mixed with 90 µL 5-LOX (Soybean lipoxygenase in assay buffer) in the specified wells of the 96-well plate. Two wells containing assay buffer and AA acted as blanks whereas four wells, each carrying enzyme and AA, were positive controls. 10 µL AA was added to each test well and the plate was shaken for 5 min. Chromogen (100 µL) was added to each well and the plate was again shaken for 5 min. The absorbance of each well at 490 nm was recorded on microplate scanning spectrophotometer. As per the protocol given with the assay kit, the 5-LOX inhibitory activity for each compound at each concentration was determined using the mean of the two values (duplicate experiments) with deviation <5%.

Experiment [2] addresses T2, COX-1 (Ovis aries, UniProt P05979).
T2 construct: purchased Cayman Chemical Co. 560131
T2 sequence (P05979 25-600): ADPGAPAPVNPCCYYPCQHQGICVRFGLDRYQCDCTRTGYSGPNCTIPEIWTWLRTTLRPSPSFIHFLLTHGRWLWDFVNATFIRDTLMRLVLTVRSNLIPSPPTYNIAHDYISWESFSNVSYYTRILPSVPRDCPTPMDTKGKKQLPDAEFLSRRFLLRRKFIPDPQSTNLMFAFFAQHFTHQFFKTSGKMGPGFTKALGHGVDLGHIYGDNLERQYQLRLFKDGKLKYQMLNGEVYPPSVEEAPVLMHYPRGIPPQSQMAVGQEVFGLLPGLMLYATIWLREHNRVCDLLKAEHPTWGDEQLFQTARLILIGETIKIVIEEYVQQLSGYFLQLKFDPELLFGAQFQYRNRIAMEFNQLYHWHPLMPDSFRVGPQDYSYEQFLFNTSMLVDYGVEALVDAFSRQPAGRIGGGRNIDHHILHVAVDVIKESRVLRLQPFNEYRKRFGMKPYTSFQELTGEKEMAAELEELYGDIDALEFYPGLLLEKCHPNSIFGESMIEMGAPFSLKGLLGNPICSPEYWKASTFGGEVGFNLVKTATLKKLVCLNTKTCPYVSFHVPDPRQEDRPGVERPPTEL
Put plainly: COX-1 enzyme immunoassay (Cayman inhibitor screening kit). How it is done:
(§1) Principally, the catalytic activity of COX-1/2 is slowed down in the presence of its inhibitor and quantitatively, it is inversely proportional to the amount of prostaglandin produced in the presence of inhibitor.
(§2) The enzyme inhibition screening assay kits for COX-1/2 and 5-LOX with item no. […] The 100% initial activity tubes for the two enzymes contained 10 µL heme and 10 µL of the enzyme in 160 µL reaction buffer. Then 10 µL inhibitor (compound of above mentioned concentrations) was added to the inhibitor tubes for the two enzymes and 10 µL of vehicle (DMSO) was added to 100% initial activity and background tubes. All the tubes were incubated for 10 min at 37 °C and the reaction was started by adding 10 µL arachidonic acid to all the reaction tubes. After incubation of the reaction vials for 2 min at 37 °C, the enzyme catalysis was stopped by adding 30 µL saturated stannous chloride solution to each test tube and solutions were kept at 0–4 °C. For EIA (enzyme immunoassay) procedure: the EIA buffers and assay specific reagents were prepared as written in the manual. In the COX dilutions, two test tubes labelled as BC1 and BC2 were taken to prepare background samples. Each tube contained 990 µL of EIA buffer and 10 µL of background COX-1 for BC1 and 10 µL of background COX-2 for BC2. The samples for 100% initial activity were diluted in three vials labelled IA1, IA2 and IA3 for each enzyme. IA1 contained 990 µL EIA buffer and 10 µL enzyme, IA2 has 950 µL buffer and 50 µL solution of IA1 (1:2000 dilution of original sample) and IA3 carried 500 µL of buffer and 500 µL of IA2 solution (1:4000 dilution of original sample). Each solution was thoroughly mixed. Solutions of IA2 and IA3 were used for the assaying. […] C2 contained 950 µL buffer and 50 µL solution of C1 (1:2000 dilution of original sample) and vial C3 was charged with 500 µL buffer and 500 µL solution from C2 (1: 4000 dilution of original sample). Only C2 and C3 were run in the assay. After all the reaction dilutions, these were then subjected to 96 wells plate. The wells were divided as: 2 blank wells, 2 NSB wells (non-specific binding), 3 B0 wells (maximum binding), one TA well (total activity), 16 wells for standards (S1–S8 in repeat), 2 BC1 and 2 BC2 wells. Compounds (inhibitors) were put in all the other wells. The sequence for the addition of reagents onto the plate was as per the protocol of the assay kit. […] For developing the plate; it was emptied and washed with wash buffer 5 times followed by the addition of 200 µL Ellman’s reagent to each well. 5 µL tracer was added to the TA well. Then the plate was covered and left for 60 mins for development in dark. After the respective time period the cover was removed and the plate was read at 420 nm. %B/Bo (i.e. % sample or maximum bound) value for standards S1-S8 and each sample was determined from the absorbance values obtained according to the calculation given in the protocol. The amount of prostaglandins formed during the enzymatic reaction was calculated from the values of %B/Bo for all the compounds at all concentrations with the help of the standard curve (plotted between %B/Bo of standards and raw data given in the protocol). Then the prostaglandin formed at each concentration of all the compounds and percentage inhibition values were calculated. The graph between percent inhibition of the enzyme and corresponding concentration of the compound provided IC50 values for the compounds.

Experiment [3] has as its target T3, COX-2 (Homo sapiens, UniProt P35354).
T3 sequence (P35354 18-604): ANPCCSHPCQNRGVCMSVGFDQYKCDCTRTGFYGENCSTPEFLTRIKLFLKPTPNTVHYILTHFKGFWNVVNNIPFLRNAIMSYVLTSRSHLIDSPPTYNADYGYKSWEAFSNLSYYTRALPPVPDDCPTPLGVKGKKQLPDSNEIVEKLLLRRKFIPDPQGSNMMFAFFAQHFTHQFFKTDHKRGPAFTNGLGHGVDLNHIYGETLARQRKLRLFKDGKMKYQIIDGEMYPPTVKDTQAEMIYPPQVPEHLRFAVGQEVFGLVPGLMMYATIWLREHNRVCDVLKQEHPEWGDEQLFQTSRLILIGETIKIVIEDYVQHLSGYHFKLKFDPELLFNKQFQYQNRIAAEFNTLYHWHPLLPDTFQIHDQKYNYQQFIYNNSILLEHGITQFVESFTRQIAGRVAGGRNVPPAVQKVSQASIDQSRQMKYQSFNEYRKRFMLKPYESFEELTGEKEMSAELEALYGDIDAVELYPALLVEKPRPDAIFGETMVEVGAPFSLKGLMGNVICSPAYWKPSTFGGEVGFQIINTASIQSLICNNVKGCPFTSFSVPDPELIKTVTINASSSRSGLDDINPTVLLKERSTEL
Put plainly: COX-2 enzyme immunoassay (Cayman inhibitor screening kit). Particulars: for Selectivity index: SI = IC50 (COX-1)/ IC50 (COX-2); for IC50: enzyme immunoassay, average of three experiments. More on the design: purchased Cayman Chemical Co. 560131. As for the experimental part:
as §1, §2

The mark [4] stands for this setting: enzyme immunoassay, average of three experiments, read-out: IC50 COX-1.
The mark [5] stands for this setting: soybean lipoxygenase, duplicate, read-out: IC50 5-LOX.

Structures are written as SMILES. Like-named read-outs stand apart in the source and are kept apart here.

On to `O=C1NC(=O)C(=Cc2cn(C[C@@H](O)Cn3c4ccccc4c(=O)c4ccccc43)c3ccccc23)C(=O)N1` [(R)-3a], for which the IC50 (in general, the concentration at which inhibition is half-maximal) in experiment [1] is 1 ± 0.1 µM.

`CN1C(=O)C(=Cc2cn(C[C@@H](O)Cn3c4ccccc4c(=O)c4ccccc43)c3ccccc23)C(=O)N(C)C1=O` [(R)-3b]: the values for the 50% inhibitory concentration (IC50) in experiment [2], in experiment [1] and in experiment [3] were 1 ± 0.2 µM, 2 ± 0.18 µM and 0.1 ± 0.07 µM, respectively. This compound also showed a Selectivity index in experiment [3] of 10.

`O=C1Nc2ccccc2C1=Cc1cn(C[C@@H](O)Cn2c3ccccc3c(=O)c3ccccc32)c2ccccc12` [(R)-3c]: the results for the IC50 in experiment [2] (setting [4]), in experiment [1] (setting [5]) and in experiment [3] were 8 ± 0.38 µM, 0.6 ± 0.042 µM and 80 ± 7 µM, respectively. In experiment [3], this compound gave a Selectivity index of 0.1.

Consider `O=C1C(=Cc2cn(C[C@@H](O)Cn3c4ccccc4c(=O)c4ccccc43)c3ccccc23)c2ccccc2N1c1c(Cl)cccc1Cl` [(R)-3d], for which the IC50 was over 10 µM in experiment [2] (setting [4]) and 0.1 ± 0.06 µM in experiment [1] (setting [5]).

Turning to `CC1=NN(c2cccc(Cl)c2)C(=O)C1=Cc1cn(C[C@@H](O)Cn2c3ccccc3c(=O)c3ccccc32)c2ccccc12` [(R)-3e], the IC50 in experiment [1] (setting [5]) amounted to 0.3 ± 0.13 µM.

As for `CN1C(=O)C(=Cc2cn(C[C@H](O)Cn3c4ccccc4c(=O)c4ccccc43)c3ccccc23)C(=O)N(C)C1=O` [(S)-3b], the IC50 in experiment [2] was 0.7 ± 0.05 µM; in experiment [1] it was 0.09 ± 0.012 µM; in experiment [3], 0.3 ± 0.18 µM.

Regarding `O=C1C(=Cc2cn(C[C@H](O)Cn3c4ccccc4c(=O)c4ccccc43)c3ccccc23)c2ccccc2N1c1c(Cl)cccc1Cl` [(S)-3d], the IC50 in experiment [2] (setting [4]) is 60 ± 4.5 µM; in experiment [1] (setting [5]), 0.6 ± 0.039 µM; in experiment [3], 6 ± 0.5 µM. In experiment [3], this compound registered a Selectivity index of 10.

As to `CC1=NN(c2cccc(Cl)c2)C(=O)C1=Cc1cn(C[C@H](O)Cn2c3ccccc3c(=O)c3ccccc32)c2ccccc12` [(S)-3e], the IC50 in experiment [1] (setting [5]) turned out to be 0.7 ± 0.038 µM.

In the case of `O=C1NC(=O)C(=Cc2cn(CCCCn3c4ccccc4c(=O)c4ccccc43)c3ccccc23)C(=O)N1` [Compound 4b], the IC50 was over 10 µM in experiment [2], 0.07 ± 0.022 µM in experiment [1] and 8 ± 0.42 µM in experiment [3].

On to `O=C1Nc2ccccc2C1=Cc1cn(CCCCn2c3ccccc3c(=O)c3ccccc32)c2ccccc12` [Compound 4d], for which the IC50 is 4 ± 0.18 µM in experiment [2] (setting [4]), 0.2 ± 0.09 µM in experiment [1] (setting [5]) and 3 ± 0.22 µM in experiment [3]. This compound also returned a Selectivity index in experiment [3] of 1.33.

Turning to `CC1=NN(c2cccc(Cl)c2)C(=O)C1=Cc1cn(CCCn2c3ccccc3c(=O)c3ccccc32)c2ccccc12` [Compound 4e], the IC50 was over 10 µM in experiment [2] (setting [4]), 0.4 ± 0.015 µM in experiment [1] (setting [5]) and 9 ± 0.55 µM in experiment [3]. In experiment [3], this compound gave a Selectivity index of over 1.11.

With `CC1=NN(c2cccc(Cl)c2)C(=O)C1=Cc1cn(CCCCn2c3ccccc3c(=O)c3ccccc32)c2ccccc12` [Compound 4f], the IC50 was found to be 0.1 ± 0.07 µM in experiment [1] (setting [5]) and 40 ± 3.8 µM in experiment [3].
